A melting point compilation (Tetko et al.)
Each block holds one compound with its values, some of them ahead of it. Starred links: 1 amine or outer side, 2 acyl side, 3 side chain; linkers in the order of their positions; H or OH if unused. Positions of bridges follow the written chain, without caps; N, C: chain ends. Non-standard residues stand in square brackets, D forms with d. Residues, ends and D or L forms follow the SMILES beside them. X7 = CCC(C)C(N[*:1])C(O)CC(=O)OC(C(C)C)C(O)C(C)C(=O)[*:2]; NMeY = CN[CH](Cc1ccc(O)cc1)C(=O)O; NMeL = CN[CH](CC(C)C)C(=O)O

SMILES: CCC(C)C1NC(=O)C(NC(=O)C(CC(C)C)NC)C(C)OC(=O)C(Cc2ccc(OC)cc2)N(C)C(=O)C2CCCN2C(=O)C(CC(C)C)NC(=O)C(C)C(O)C(C(C)C)OC(=O)CC1O (stereo not drawn) (H-[NMeL]T[X7]LP[NMeY](Me); ester 2-C; configuration not given here)
melting point: 124 to 127 °C

SMILES: CC(=O)N1C(C)(C)CC(OC(=O)CCn2c(=O)n(CCC(=O)OC3CC(C)(C)N(C(C)=O)C(C)(C)C3)c(=O)n(CCC(=O)OC3CC(C)(C)N(C(C)=O)C(C)(C)C3)c2=O)CC1(C)C
melting point: 126 to 128 °C

SMILES: CCCCN(CCCC)c1ccc(C=Cc2ccc(C=CC3=C(C#N)C(=C(C#N)C#N)OC3(C)C(F)(F)F)s2)c(O[Si](c2ccccc2)(c2ccccc2)C(C)(C)C)c1 (stereo not drawn)
melting point: 186 to 187 °C

SMILES: CC(=O)OCC(CNC(=O)c1c(I)c(C(=O)NCC(COC(C)=O)OC(C)=O)c(I)c(N2CCCCC2=O)c1I)OC(C)=O (stereo not drawn)
melting point: 130 to 134 °C

SMILES: CC(C)c1ccc(S(=O)(=O)OC(c2cc(C(OS(=O)(=O)c3ccc(C(C)C)cc3)(C(F)(F)F)C(F)(F)F)cc(C(OS(=O)(=O)c3ccc(C(C)C)cc3)(C(F)(F)F)C(F)(F)F)c2)(C(F)(F)F)C(F)(F)F)cc1
melting point: 105 °C

SMILES: CCCCCCCCCCCCCCCCS(=O)(=O)Nc1ccc2c(c1)C(NS(=O)(=O)CCCCCCCCCCCCCCCC)(c1ccccc1)C=N2 (stereo not drawn)
melting point: 210 to 212 °C

SMILES: C=C(C)[C@@H]1CC[C@]2(C(=O)N[C@H]3C[C@@H](C(=O)N4CCCCC4)C3(C)C)CC[C@]3(C)[C@H](CC[C@@H]4[C@@]5(C)CC[C@H](OC(=O)[C@@H]6C[C@H](C(=O)O)C6(C)C)C(C)(C)[C@@H]5CC[C@]43C)[C@@H]12
melting point: 258 to 269 °C

SMILES: CCCCCCCCCCCCCCCCCCN(Cc1c(C)cc(C(C)(C)C)c(O)c1C)S(=O)(=O)c1ccc(-c2ccc(S(=O)(=O)N(CCCCCCCCCCCCCCCCCC)Cc3c(C)cc(C(C)(C)C)c(O)c3C)cc2)cc1
melting point: 208 to 210 °C

SMILES: CCCCCCCCCCCCCCCC(=O)OCC(CSCC(NC(=O)OCc1cccc2c1Cc1ccccc1-2)C(=O)O)OC(=O)CCCCCCCCCCCCCCC (mixture of isomers)
melting point: 82 to 84 °C

SMILES: CCCCCCCCCCCCCCCCCC[Si](C)(C)O[C@@H]1c2cc(Br)ccc2-c2ccc(Br)cc2[C@H]1O[Si](C)(C)CCCCCCCCCCCCCCCCCC (relative stereo)
melting point: 51.5 to 52.5 °C

SMILES: O=C(CN1CCN(C(=O)c2cc(C(F)(F)F)cc(C(F)(F)F)c2)[C@H](Cc2c[nH]c3ccccc23)C1)N1CCN(C(c2ccccc2)(c2ccccc2)c2ccccc2)CC1
melting point: 160 to 166 °C

SMILES: CCC(C)CNC(=O)C(CC(O)C(CC(C)C)NC(=O)C(Cc1cscn1)NC(=O)C(CC(=O)N(C)C1CCCCC1)Cc1cccc2ccccc12)C(C)(C)O (mixture of isomers)
melting point: 187 to 190 °C

SMILES: CCC(C)C=O (stereo not drawn)
melting point: -60 °C

More lines, now with the values ahead:

melting point: 116 to 118 °C
SMILES: N#Cc1ccc(C=Cc2ccc(OCc3ccc4ccccc4n3)cc2)cc1

melting point: 120 °C
SMILES: CC(C)[Si](OC(=O)Cc1cc(I)c(Oc2cc(I)c(OCC3CO3)c(I)c2)c(I)c1)(C(C)C)C(C)C (stereo not drawn)

melting point: 57 to 60 °C
SMILES: CCOC(=O)c1cnc2snc(C)c2c1N(C)S(=O)(=O)c1ccc(Oc2ccncc2)cc1

melting point: 216 to 217 °C
SMILES: Cc1cc(-c2nc3c(S(C)=O)cc(Cl)nn3c2-c2ccnc(N)c2)ccc1F (stereo not drawn)

melting point: 235 °C
SMILES: CS(=O)(=O)N1CC=C(C#Cc2ccc3c(c2)NC(=O)CC(c2cccc(C#N)c2)=N3)CC1

melting point: 134 to 136 °C
SMILES: CS(=N)(=O)Cc1ccc(Cl)nc1 (stereo not drawn)

melting point: 171 to 173 °C
SMILES: CCOC(=O)c1cc(NCc2c(C)cccc2CC)c2nc(C)n(C)c2c1

melting point: 96 °C
SMILES: CC(=O)ON=NCc1ccc(C(=O)NCCCNC(=O)[C@@H]2CCCN2S(=O)(=O)c2ccc(Cl)c(COc3cccc4c(-n5ccnc5)cc(C)nc34)c2Cl)cc1

melting point: 188 °C
SMILES: Cn1cncc1C(O)(c1ccoc1)c1ccc2c(c1)c(-c1cccc(Cl)c1)cc1nnnn12 (stereo not drawn)

melting point: 92 to 95 °C
SMILES: CCOC(=O)N1c2cc(OC)c(OC)cc2C(=O)C(=CN)C1C (stereo not drawn)
